According to patent US10975101B2, “Ultra-potent vinca alkaloids: added molecular complexity further disrupts the tublin dimer-dimer interface” (priority 2016, dated 2021):

Experiments:
[1] = test system: L1210 (mouse lymphocytic leukemia) cells; assay: Cell growth inhibition assay, L1210; format: cell-based; conditions: 72 hours incubation, phosphatase assay
Method: (§1) Compounds were tested for their cell growth inhibition of L1210 (ATCC no. CCL-219, mouse lymphocytic leukemia) cells, HCT116 (ATCC no. CCL-247, human colorectal carcinoma) cells, and HCT116/VM46 (a vinblastine-resistant strain of HCT116) cells in culture. A population of cells (>1×10^6 cells/mL as determined with a hemocytometer) was diluted with an appropriate amount of Dulbecco's Modified Eagle Medium (DMEM, Gibco) containing 10% fetal bovine serum (FBS, Gibco) to a final concentration of 30000 cells/mL.
(§2) To each well of a 96-well plate (Corning Costar), 100 μL of the cell media solution was added with a multichannel pipet. The cultures were incubated at 37° C. in an atmosphere of 5% CO2 and 95% humidified air for 24 hours. The test compounds were added to the plate as follows: test substances were diluted in DMSO to a concentration of 1 mM and 10-fold serial dilutions were performed on a separate 96-well plate. Fresh culture medium (100 μL) was added to each well of cells to constitute 200 μL of medium per well followed by 2 μL of each test agent. Compounds were tested in duplicate (n=2-18 times) at six concentrations between 0-1000 nM or 0-10000 nM. Following addition, cultures were incubated for an additional 72 hours.
(§3) A phosphatase assay was used to establish the IC50 values as follows: the media in each cell was removed and 100 μL of phosphatase solution (100 mg phosphatase substrate in 30 mL of 0.1 M NaOAc, pH 5.5, 0.1% Triton X-100 buffer) was added to each well. The plates were incubated at 37° C. for either 5 minutes (L1210) or 15 minutes (HCT116 and HCT116/VM46). After the given incubation time, 50 μL of 0.1 N NaOH was added to each well and the absorption at 405 nm was determined using a 96 well plate reader. As the absorption is directly proportional to the number of living cells, the IC50 values were calculated and the reported values represent of the average of 4-36 determinations (SD±10%).

[2] = test system: HCT116 (human colorectal carcinoma) cells; assay: cells; format: cell-based; conditions: 72 hours incubation, phosphatase assay; read-out: IC50, HCT116
Method: as §1, §2, §3

[3] = test system: HCT116/VM46 (a vinblastine-resistant strain of HCT116) cells; assay: Cell growth inhibition assay, HCT116/VM46; format: cell-based, human; conditions: 72 hours incubation, phosphatase assay; Pgp-overexpressing resistant line
Method: as §1, §2, §3

Row | SMILES | IC50 [1] [nM] | IC50 [2] [nM] | IC50 [3] [nM]
1 | CCC1(NC(=O)N2CCC(OC)C2)CC2CN(CCc3c([nH]c4ccccc34)C(C(=O)OC)(c3cc4c(cc3OC)N(C)C3C(O)(C(=O)OC)C(OC(C)=O)C5(CC)C=CCN6CCC43C65)C2)C1 (mixture of isomers) [Compound 16] | 3.3 | 1 | 25
2 | CCC1(NC(=O)N2CCC(Br)C2)CC2CN(CCc3c([nH]c4ccccc34)C(C(=O)OC)(c3cc4c(cc3OC)N(C)C3C(O)(C(=O)OC)C(OC(C)=O)C5(CC)C=CCN6CCC43C65)C2)C1 (mixture of isomers) [Compound 19] | 3.1 | 0.9 | 25
3 | CC[C@]1(NC(=O)N2CCC(N(C)C)C2)C[C@H]2CN(CCc3c([nH]c4ccccc34)[C@@](C(=O)OC)(c3cc4c(cc3OC)N(C)[C@H]3[C@@](O)(C(=O)OC)[C@H](OC(C)=O)[C@]5(CC)C=CCN6CC[C@]43[C@@H]65)C2)C1 (single isomer, unassigned) [Compound 10] | 20 | 20 | 500
4 | CC[C@]1(NC(=O)N2CCC(N(C)C)C2)C[C@H]2CN(CCc3c([nH]c4ccccc34)[C@@](C(=O)OC)(c3cc4c(cc3OC)N(C)[C@H]3[C@@](O)(C(=O)OC)[C@H](OC(C)=O)[C@]5(CC)C=CCN6CC[C@]43[C@@H]65)C2)C1 (single isomer, unassigned) [Compound 11] | 14 | 6.2 | 390
5 | CC[C@]1(NC(=O)N2CCC(F)C2)C[C@H]2CN(CCc3c([nH]c4ccccc34)[C@@](C(=O)OC)(c3cc4c(cc3OC)N(C)[C@H]3[C@@](O)(C(=O)OC)[C@H](OC(C)=O)[C@]5(CC)C=CCN6CC[C@]43[C@@H]65)C2)C1 (single isomer, unassigned) [Compound 17] | 0.62 | 0.64 | 7.2
6 | CC[C@]1(NC(=O)N2CCC(F)C2)C[C@H]2CN(CCc3c([nH]c4ccccc34)[C@@](C(=O)OC)(c3cc4c(cc3OC)N(C)[C@H]3[C@@](O)(C(=O)OC)[C@H](OC(C)=O)[C@]5(CC)C=CCN6CC[C@]43[C@@H]65)C2)C1 (single isomer, unassigned) [Compound 18] | 0.6 | 0.61 | 20
7 | CC[C@]1(NC(=O)N2CCC(C#N)C2)C[C@H]2CN(CCc3c([nH]c4ccccc34)[C@@](C(=O)OC)(c3cc4c(cc3OC)N(C)[C@H]3[C@@](O)(C(=O)OC)[C@H](OC(C)=O)[C@]5(CC)C=CCN6CC[C@]43[C@@H]65)C2)C1 (single isomer, unassigned) [Compound 20] | 3.7 | 1.5 | 60
8 | CC[C@]1(NC(=O)N2CCC(C#N)C2)C[C@H]2CN(CCc3c([nH]c4ccccc34)[C@@](C(=O)OC)(c3cc4c(cc3OC)N(C)[C@H]3[C@@](O)(C(=O)OC)[C@H](OC(C)=O)[C@]5(CC)C=CCN6CC[C@]43[C@@H]65)C2)C1 (single isomer, unassigned) [Compound 21] | 5.1 | 1.8 | 60
9 | CC[C@]1(NC(=O)N2CC=CC2)C[C@H]2CN(CCc3c([nH]c4ccccc34)[C@@](C(=O)OC)(c3cc4c(cc3OC)N(C)[C@H]3[C@@](O)(C(=O)OC)[C@H](OC(C)=O)[C@]5(CC)C=CCN6CC[C@]43[C@@H]65)C2)C1 [Compound 22] | 0.53 | 0.5 | 5.7
10 | CC[C@]1(NC(=O)N2CCCCCC2)C[C@H]2CN(CCc3c([nH]c4ccccc34)[C@@](C(=O)OC)(c3cc4c(cc3OC)N(C)[C@H]3[C@@](O)(C(=O)OC)[C@H](OC(C)=O)[C@]5(CC)C=CCN6CC[C@]43[C@@H]65)C2)C1 [Compound 24] | 4.3 | 3.1 | 35
11 | CC[C@]1(NC(=O)N2CCCCCCC2)C[C@H]2CN(CCc3c([nH]c4ccccc34)[C@@](C(=O)OC)(c3cc4c(cc3OC)N(C)[C@H]3[C@@](O)(C(=O)OC)[C@H](OC(C)=O)[C@]5(CC)C=CCN6CC[C@]43[C@@H]65)C2)C1 [Compound 25] | 60 | 35 | 330
12 | CC[C@]1(NC(=O)N2C3CCC2CC3)C[C@H]2CN(CCc3c([nH]c4ccccc34)[C@@](C(=O)OC)(c3cc4c(cc3OC)N(C)[C@H]3[C@@](O)(C(=O)OC)[C@H](OC(C)=O)[C@]5(CC)C=CCN6CC[C@]43[C@@H]65)C2)C1 [Compound 26] | 40 | 20 | 250
13 | CC[C@]1(NC(=O)N2CCc3ccccc3CC2)C[C@H]2CN(CCc3c([nH]c4ccccc34)[C@@](C(=O)OC)(c3cc4c(cc3OC)N(C)[C@H]3[C@@](O)(C(=O)OC)[C@H](OC(C)=O)[C@]5(CC)C=CCN6CC[C@]43[C@@H]65)C2)C1 [Compound 27] | 0.59 | 0.69 | 6.2
14 | CC[C@]1(NC(=O)N2Cc3ccc(C)cc3C2)C[C@H]2CN(CCc3c([nH]c4ccccc34)[C@@](C(=O)OC)(c3cc4c(cc3OC)N(C)[C@H]3[C@@](O)(C(=O)OC)[C@H](OC(C)=O)[C@]5(CC)C=CCN6CC[C@]43[C@@H]65)C2)C1 [Compound 30] | 0.41 | 0.44 | 5.9
15 | CC[C@]1(NC(=O)N2Cc3ccc(F)cc3C2)C[C@H]2CN(CCc3c([nH]c4ccccc34)[C@@](C(=O)OC)(c3cc4c(cc3OC)N(C)[C@H]3[C@@](O)(C(=O)OC)[C@H](OC(C)=O)[C@]5(CC)C=CCN6CC[C@]43[C@@H]65)C2)C1 [Compound 31] | 0.63 | 0.52 | 5.2
16 | CC[C@]1(NC(=O)N2Cc3ccc(Cl)cc3C2)C[C@H]2CN(CCc3c([nH]c4ccccc34)[C@@](C(=O)OC)(c3cc4c(cc3OC)N(C)[C@H]3[C@@](O)(C(=O)OC)[C@H](OC(C)=O)[C@]5(CC)C=CCN6CC[C@]43[C@@H]65)C2)C1 [Compound 32] | 0.5 | 0.55 | 5.7
17 | CC[C@]1(NC(=O)N2Cc3ccc(Br)cc3C2)C[C@H]2CN(CCc3c([nH]c4ccccc34)[C@@](C(=O)OC)(c3cc4c(cc3OC)N(C)[C@H]3[C@@](O)(C(=O)OC)[C@H](OC(C)=O)[C@]5(CC)C=CCN6CC[C@]43[C@@H]65)C2)C1 [Compound 33] | 0.62 | 0.56 | 6.4
18 | CC[C@]1(NC(=O)N2Cc3ccc(C(F)(F)F)cc3C2)C[C@H]2CN(CCc3c([nH]c4ccccc34)[C@@](C(=O)OC)(c3cc4c(cc3OC)N(C)[C@H]3[C@@](O)(C(=O)OC)[C@H](OC(C)=O)[C@]5(CC)C=CCN6CC[C@]43[C@@H]65)C2)C1 [Compound 34] | 0.59 | 0.67 | 6.2
19 | CC[C@]1(NC(=O)N2Cc3ccc(N)cc3C2)C[C@H]2CN(CCc3c([nH]c4ccccc34)[C@@](C(=O)OC)(c3cc4c(cc3OC)N(C)[C@H]3[C@@](O)(C(=O)OC)[C@H](OC(C)=O)[C@]5(CC)C=CCN6CC[C@]43[C@@H]65)C2)C1 [Compound 36] | 0.47 | 0.42 | 6.8
20 | CC[C@]1(NC(=O)N2Cc3ccc(NC)cc3C2)C[C@H]2CN(CCc3c([nH]c4ccccc34)[C@@](C(=O)OC)(c3cc4c(cc3OC)N(C)[C@H]3[C@@](O)(C(=O)OC)[C@H](OC(C)=O)[C@]5(CC)C=CCN6CC[C@]43[C@@H]65)C2)C1 [Compound 37] | 0.45 | 0.43 | 4.6
21 | CC[C@]1(NC(=O)N2Cc3ccc(N(C)C)cc3C2)C[C@H]2CN(CCc3c([nH]c4ccccc34)[C@@](C(=O)OC)(c3cc4c(cc3OC)N(C)[C@H]3[C@@](O)(C(=O)OC)[C@H](OC(C)=O)[C@]5(CC)C=CCN6CC[C@]43[C@@H]65)C2)C1 [Compound 38] | 0.5 | 0.62 | 3.9
22 | CCCNc1ccc2c(c1)CN(C(=O)N[C@@]1(CC)C[C@H]3CN(CCc4c([nH]c5ccccc45)[C@@](C(=O)OC)(c4cc5c(cc4OC)N(C)[C@H]4[C@@](O)(C(=O)OC)[C@H](OC(C)=O)[C@]6(CC)C=CCN7CC[C@]54[C@@H]76)C3)C1)C2 [Compound 39] | 0.4 | 0.31 | 4.6
23 | CCC(=O)Nc1ccc2c(c1)CN(C(=O)N[C@@]1(CC)C[C@H]3CN(CCc4c([nH]c5ccccc45)[C@@](C(=O)OC)(c4cc5c(cc4OC)N(C)[C@H]4[C@@](O)(C(=O)OC)[C@H](OC(C)=O)[C@]6(CC)C=CCN7CC[C@]54[C@@H]76)C3)C1)C2 [Compound 41] | 0.46 | 0.54 | 7.7
24 | CC[C@]1(NC(=O)N2Cc3ccc(NC(=O)C(C)C)cc3C2)C[C@H]2CN(CCc3c([nH]c4ccccc34)[C@@](C(=O)OC)(c3cc4c(cc3OC)N(C)[C@H]3[C@@](O)(C(=O)OC)[C@H](OC(C)=O)[C@]5(CC)C=CCN6CC[C@]43[C@@H]65)C2)C1 [Compound 43] | 0.39 | 0.49 | 6.4
